Test results reported in patent US6852735B1, “Siastatin B derivatives having a glycosidase inhibitory activity and processes for producing the same” (Zaidan Hojin Biseibutsu Kagaku Kenkyu Kai, priority 1998, dated 2005).

Experiments:
Type in all cases: biochemical
[1] = molecular target: α-D-glucosidase (from yeast); assay: α-glucosidase inhibition (Test Example 4); conditions: for 50% inhibiory concentration (IC50) Enzyme H: α-D-glucosidase from yeast, substrate p-nitrophenyl-α-D-glucoside; for inhibition of α-D-glucosidase, in words: summary of Table 1
Procedure: (§1) Thus, 0.5 mL of 0.025M citrate-phosphate buffer (pH 4.0), 0.1 mL of the same buffer containing 10 mM p-nitro-phenyl-N-acetyl-α-D-galactosaminide dissolved therein, and 0.1 mL of either water or an aqueous solution containing as the test compound any one of the compounds of the formulae (I), (V) and (X) according to this invention were mixed with each other and pre-incubated in a 96-wells titer plate at 37° C. for 10 minutes. After the completion of the pre-incubation, to the pre-incubated mixture was added 0.01 mL of 0.025 M citrate-phosphate buffer containing α-N-acetyl-galactosaminidase originated from chicken liver (a product of Sigma Company) which was dissolved in said buffer as a glycosidase to be tested. Thereafter, the enzymatic reaction was conducted at 37° C. for 30 minutes.
(§2) After the enzymatic reaction, to the reaction solution was added 1.0 mL of 0.3M glycine—sodium hydroxide buffer (pH 10.5), in order to terminate the enzymatic reaction. Thereafter, the absorbance [designated as value (a)] of light at 405 nm of the resulting reaction solution was measured. Concurrently, measurement was made of the absorbance [designated as value (b)] at 405 nm of the reaction solution as obtained in the control test where the enzymatic reaction was conducted without addition of the test compound. Further, measurements were made of the absorbance [designated as values (a′)] and the absorbance [[designated as values (b′)] at 405 nm of the solutions as obtained in the blank test and the control test, respectively, where the enzymatic reaction was not conducted in the assay test. The rate of inhibition to […] was calculated by the equation: [1-(a-a′)/(b-b′)]×100.
(§3) The test results obtained are summarized as IC50 value in Table 1 below.
This Test Example is a test example for determining the α-glucosidase or β-glucosidase-inhibitory activity of the compound of the formula (I), (V) or (X) according to this invention.
The evaluation of the β-glucosidase-inhibitory activity was conducted according to a modification of the method described in the “Agricultural and Biological Chemistry”, 26, p.203 (1962).
Namely, the test was conducted in the same manner as the test for the enzyme-inhibitory activity described in Test Example 1, but with using α-glucosidase originated from yeast or β-glucosidase originated from almond (both enzymes are products of Sigma Company) as the glycosidase enzyme, and with using p-nitro-phenyl-α-D-glucoside or p-nitrophenyl-β-D-glucoside as the substrate. Furthermore, absorbances of light were measured in the same manner as in Test Example 1, and IC50 values of the test compound capable of giving the 50% inhibition to the enzyme were calculated.

[2] = molecular target: T1, α-D-mannosidase (from jack bean) (Canavalia ensiformis, UniProt C0HJB3); assay: α-mannosidase inhibition (Test Example 5); conditions: for IC50: α-D-mannosidase from jack bean, substrate p-nitrophenyl-α-D-mannoside, sodium acetate buffer pH 4.5, read-out: 50% inhibiory concentration (IC50) Enzyme G (converted); for inhibition of α-D-mannosidase, in words: summary of Table 1
T1 sequence (C0HJB3 1-981): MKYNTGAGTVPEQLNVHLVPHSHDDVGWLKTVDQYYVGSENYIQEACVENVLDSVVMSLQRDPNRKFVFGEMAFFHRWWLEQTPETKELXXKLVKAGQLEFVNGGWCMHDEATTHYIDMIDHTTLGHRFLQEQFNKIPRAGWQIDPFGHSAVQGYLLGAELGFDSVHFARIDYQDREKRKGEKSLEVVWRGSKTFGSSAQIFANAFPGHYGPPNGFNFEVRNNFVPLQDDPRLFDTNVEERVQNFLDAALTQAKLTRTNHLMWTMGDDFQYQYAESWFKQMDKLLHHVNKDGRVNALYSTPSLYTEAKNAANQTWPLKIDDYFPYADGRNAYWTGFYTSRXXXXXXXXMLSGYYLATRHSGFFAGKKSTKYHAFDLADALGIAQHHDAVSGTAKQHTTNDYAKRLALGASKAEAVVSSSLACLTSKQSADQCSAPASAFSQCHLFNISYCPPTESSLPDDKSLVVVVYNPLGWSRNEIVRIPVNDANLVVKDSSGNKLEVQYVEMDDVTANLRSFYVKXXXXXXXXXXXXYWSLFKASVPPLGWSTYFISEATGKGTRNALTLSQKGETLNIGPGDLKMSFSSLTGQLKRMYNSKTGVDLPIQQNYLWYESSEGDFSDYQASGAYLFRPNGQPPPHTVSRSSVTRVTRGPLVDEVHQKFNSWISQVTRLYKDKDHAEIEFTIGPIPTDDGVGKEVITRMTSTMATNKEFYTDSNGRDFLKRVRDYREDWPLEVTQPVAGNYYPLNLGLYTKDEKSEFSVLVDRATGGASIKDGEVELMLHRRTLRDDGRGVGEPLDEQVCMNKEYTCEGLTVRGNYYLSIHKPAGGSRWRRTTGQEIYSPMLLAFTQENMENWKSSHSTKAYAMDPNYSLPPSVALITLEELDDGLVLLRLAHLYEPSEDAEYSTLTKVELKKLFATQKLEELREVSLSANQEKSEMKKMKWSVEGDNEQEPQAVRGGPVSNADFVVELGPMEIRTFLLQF
Procedure: as §1, §2, §3
(§4) This Test Example is a test example for determining the α-mannosidase or β-mannosidase-inhibitory activity of the compounds according to this invention.
(§5) The evaluation of the β-mannosidase-inhibitory activity was conducted according to a modification of the method described in the “Journal of Biological Chemistry”, 242, p.5474 (1967).
(§6) Namely, the test was conducted in the same manner as the test for the enzyme-inhibitory activity test described in Test Example 1, but with using α-mannosidase from jack bean or β-mannosidase from snail (both enzymes are products of Sigma Company) as the glycosidase enzyme, with using 0.05 M sodium acetate—acetate buffer (pH 4.5) as the buffer, and with using p-nitrophenyl-α-D-mannoside or p-nitrophenyl-β-D-mannoside as the substrate. Furthermore, absorbances of light were measured in the same manner as in Test Example 1. IC50 values of the test compound capable of giving the 50% inhibition to the enzymes were calculated.

[3] = test system: β-D-mannosidase (from snail); assay: β-mannosidase inhibition (Test Example 5); conditions: for inhibition of β-D-mannosidase, in words: summary of Table 1; for 50% inhibiory concentration (IC50) Enzyme F: β-D-mannosidase from snail, substrate p-nitrophenyl-β-D-mannoside, sodium acetate buffer pH 4.5
Procedure: as §1, §2, §3, §4, §5, §6

[4] = test system: α-D-galactosidase (from Aspergillus niger); assay: α-galactosidase inhibition (Test Example 3); conditions: for 50% inhibiory concentration (IC50) Enzyme C: α-D-galactosidase from Aspergillus niger, substrate p-nitrophenyl-α-D-galactoside
Procedure: as §1, §2, §3
This Test Example is a test example for determining the α-galactosidase or β-galactosidase-inhibitory activity of the compound of the formula (I), (V) or (X) according to this invention.
The evaluation of the α-galactosidase or β-galactosidase-inhibitory activity was conducted according to a modification of the method described in the “Journal of Biological Chemistry”, 240, p.2468 (1965).
Namely, the test was conducted in the same manner as the test for the enzyme-inhibitory activity described in Test Example 1, but with using α-galactosidase or β-galactosidase (products of by Sigma Company) originated from Aspergillus niger, as the glycosidase enzyme, and with using p-nitrophenyl-α-D-galactoside and p-nitrophenyl-β-D-galactoside as the substrate. Furthermore, absorbances of light at 405 nm were measured in the same manner as in Test Example 1. IC50 values of the test compound capable of giving the 50% inhibition to the enzymes were calculated.

| SMILES | 50% inhibiory concentration (IC50) Enzyme H [1] | IC50 [2] | inhibition of β-D-mannosidase, in words [3] | 50% inhibiory concentration (IC50) Enzyme F [3] | inhibition of α-D-galactosidase, in words ([4]; summary of Table 1) | 50% inhibiory concentration (IC50) Enzyme C [4] | inhibition of α-D-glucosidase, in words [1] | inhibition of α-D-mannosidase, in words [2] |
| --- | --- | --- | --- | --- | --- | --- | --- | --- |
| O=C(N[C@H]1NC[C@H](CO)[C@H](O)[C@@H]1O)C(F)(F)F [Formula (I), 6-deacetamido-3-decarboxy-3-hydroxymethyl-6-trifluoroacetamido-siastain B] | >100 µg/mL | > 387 µM | inhibit strongly | 38 µg/mL | inhibit strongly | 0.1 µg/mL |  |  |
| CC(=O)NC1NCC(CO)C(O)C1O (stereo not drawn) [Formula (V), 3-decarboxy-4-epi-3-hydroxymethyl-siastain B] | 7 µg/mL | 318 µM | inhibit strongly | 10 µg/mL |  | >100 µg/mL | inhibit strongly | inhibit strongly |
| O=C(N[C@H]1NC[C@H](CO)[C@@H](O)[C@@H]1O)C(F)(F)F [Formula (X), 6-deacetamido-3-decarboxy-4-epi-3-hydroxymethyl-6-trifluoroacetamido-siastain B] | 0.06 µg/mL | 2.9 µM | inhibit strongly | 1 µg/mL |  | >100 µg/mL | inhibit strongly | inhibit strongly |
